Laboratory results taken from ChEMBL document CHEMBL2440117, “Improved inhibitory activities against tumor-cell migration and invasion by 15-benzylidene substitution derivatives of andrographolide” (Bioorg Med Chem Lett, 2013).
Activity calls are given as the source filed them. No cut-off for these calls is given here.

Legend:
PC-3 [1] = assay: Cytotoxicity against human PC3 cells assessed as growth inhibition at 10 uM after 48 hrs by MTT assay relative to control; assay type: functional; details: for inhibition of growth at 10 µM: PC-3, 48 h, read-out: GI
PC-3 [2] = assay: Antimigratory activity against human PC3 cells at 10 uM after 12 to 48 hrs by wound-healing assay relative to control; assay type: functional
5637 [3] = assay: Antimigratory activity against human 5637 cells after 12 to 48 hrs by wound-healing assay; assay type: functional, cell-based
SGC-7901 [4] = assay: Cytotoxicity against human SGC7901 cells assessed as growth inhibition at 10 uM after 48 hrs by MTT assay relative to control; assay type: functional, cell-based
SGC-7901 [5] = assay: Antimigratory activity against human SGC7901 cells at 10 uM after 12 to 48 hrs by wound-healing assay relative to control; assay type: functional
5637 [6] = assay: Cytotoxicity against human 5637 cells assessed as growth inhibition at 10 uM after 48 hrs by MTT assay relative to control; assay type: functional, cell-based
SGC-7901 [7] = assay: Antimigratory activity against human SGC7901 cells after 12 to 48 hrs by wound-healing assay; assay type: functional, cell-based
5637 [8] = assay: Cytotoxicity against human 5637 cells assessed as growth inhibition at 5 uM after 48 hrs by MTT assay relative to control; assay type: functional; details: Homo sapiens, 5637, 48 h; read-out: GI
5637 [9] = assay: Antimigratory activity against human 5637 cells at 5 uM after 12 to 48 hrs by wound-healing assay relative to control; assay type: functional
5637 [10] = assay: Antimigratory activity against human 5637 cells at 10 uM after 12 to 48 hrs by wound-healing assay relative to control; assay type: functional
SGC-7901 [11] = assay: Downregulation of MMP-2 protein expression in human SGC7901 cells at 10 uM after 72 hrs by microscopic analysis; assay type: functional, cell-based
SGC-7901 [12] = assay: Downregulation of MMP-9 protein expression in human SGC7901 cells at 2.5 to 10 uM after 72 hrs by microscopic analysis; assay type: functional, cell-based
SGC-7901 [13] = assay: Downregulation of MMP-7 protein expression in human SGC7901 cells at 2.5 to 10 uM after 72 hrs by microscopic analysis; assay type: functional, cell-based
SGC-7901 [14] = assay: Downregulation of MMP-7 mRNA expression in human SGC7901 cells at 1.25 to 10 uM after 48 hrs by semi-quantitative RT-PCR analysis; assay type: functional, cell-based
SGC-7901 [15] = assay: Downregulation of MMP-9 mRNA expression in human SGC7901 cells at 1.25 to 2.5 uM after 48 hrs by semi-quantitative RT-PCR analysis; assay type: functional, cell-based
SGC-7901 [16] = assay: Downregulation of MMP-2 mRNA expression in human SGC7901 cells at 1.25 uM after 48 hrs by semi-quantitative RT-PCR analysis; assay type: functional, cell-based
SGC-7901 [17] = assay: Antiinvasive activity against human SGC7901 cells after 24 hrs by matrigel invasion assay; assay type: functional, cell-based; details: SGC-7901, 24 h
HT-29 [18] = assay: Cytotoxicity against human HT-29 cells assessed as growth inhibition at 10 uM after 48 hrs by MTT assay; assay type: functional, cell-based
HT-29 [19] = assay: Antimigratory activity against human HT-29 cells at 10 uM after 12 to 48 hrs by wound-healing assay relative to control; assay type: functional
ECa-109 [20] = assay: Cytotoxicity against human EC109 cells assessed as growth inhibition at 10 uM after 48 hrs by MTT assay; assay type: functional, cell-based
[21] = (§1) Antimigratory activity against human EC109 cells at 10 uM after 12 to 48 hrs by wound-healing assay relative to control; assay type: functional; details: ECa-109
A549 [22] = assay: Cytotoxicity against human A549 cells assessed as growth inhibition at 10 uM after 48 hrs by MTT assay; assay type: functional, cell-based
A549 [23] = assay: Antimigratory activity against human A549 cells at 10 uM after 12 to 48 hrs by wound-healing assay relative to control; assay type: functional
HT-29 [24] = assay: Antimigratory activity against human HT-29 cells after 12 to 48 hrs by wound-healing assay; assay type: functional, cell-based
[25] = Antimigratory activity against human EC109 cells at 5 uM after 12 to 48 hrs by wound-healing assay relative to control; assay type: functional; details: ECa-109
A549 [26] = assay: Antimigratory activity against human A549 cells at 5 uM after 12 to 48 hrs by wound-healing assay relative to control; assay type: functional
PC-3 [27] = assay: Antimigratory activity against human PC3 cells after 12 to 48 hrs by wound-healing assay; assay type: functional, cell-based
SGC-7901 [28] = assay: Downregulation of MMP-9 mRNA expression in human SGC7901 cells at 10 uM after 48 hrs by semi-quantitative RT-PCR analysis; assay type: functional, cell-based
SGC-7901 [29] = assay: Effect on MMP-2 mRNA expression in human SGC7901 cells at 10 uM after 48 hrs by semi-quantitative RT-PCR analysis; assay type: functional, cell-based
SGC-7901 [30] = assay: Downregulation of MMP-7 mRNA expression in human SGC7901 cells after 48 hrs by semi-quantitative RT-PCR analysis; assay type: functional, cell-based
SGC-7901 [31] = assay: Antiinvasive activity against human SGC7901 cells at 5 to 10 uM after 24 hrs by matrigel invasion assay relative to control; assay type: functional, cell-based
SGC-7901 [32] = assay: Antiinvasive activity against human SGC7901 cells at 10 uM after 24 hrs by matrigel invasion assay relative to control; assay type: functional; details: SGC-7901, 24 h
ECa-109 [33] = assay: as §1; assay type: functional
5637 [34] = assay: Antimigratory activity against human 5637 cells at 2.5 uM after 12 to 48 hrs by wound-healing assay; assay type: functional, cell-based
A549 [35] = assay: Antimigratory activity against human A549 cells after 12 to 48 hrs by wound-healing assay; assay type: functional, cell-based

| Structure (SMILES) | growth inhibition (GI) (PC-3 [1]) | inhibition (PC-3 [2]) | growth inhibition (GI) (SGC-7901 [4]) | growth inhibition (GI) 5637 [6] | inhibition of growth at 5 µM 5637 [8] [%] | inhibition at 5 µM 5637 [9] [%] | inhibition (SGC-7901 [5]) | growth inhibition (GI) (HT-29 [18]) | growth inhibition (GI) (ECa-109 [20]) | growth inhibition (GI) (A549 [22]) | other results |
| --- | --- | --- | --- | --- | --- | --- | --- | --- | --- | --- | --- |
| C=C1CC[C@@H]2[C@](C)(COC(=O)c3cccnc3)[C@H](OC(=O)c3cccnc3)CC[C@@]2(C)[C@@H]1/C=C/C1=CC(=C/c2ccc(Cl)cc2)/OC1=O | inactive | inactive | inactive | inactive |  |  |  |  |  |  | IC50 5637 [3]: 8.1 µM; inhibition at 10 µM (SGC-7901 [5]): 22.3% |
| C=C1CC[C@@H]2[C@](C)(CO)[C@H](O)CC[C@@]2(C)[C@@H]1/C=C/C1=CC(=C/c2ccc(Br)cc2)/OC1=O |  |  | inactive |  | 33.6 | 27.9 |  |  |  |  | inhibition of growth at 10 µM (PC-3 [1]): 40.2%; inhibition at 10 µM (PC-3 [2]): 83.8%; IC50 (SGC-7901 [7]): 8.6 µM |
| C=C1CC[C@@H]2[C@](C)(COC(=O)c3cccnc3)[C@H](OC(=O)c3cccnc3)CC[C@@]2(C)[C@@H]1/C=C/C1=CCOC1=O | inactive | inactive | inactive | inactive |  |  | inactive |  |  |  | inhibition at 10 µM 5637 [10]: 31.7% |
| C[C@]1(CO)[C@H]2CC[C@@]3(CO3)[C@@H](/C=C/C3=CCOC3=O)[C@]2(C)CC[C@H]1O | inactive | inactive | inactive | inactive |  |  | inactive |  |  |  | inhibition at 10 µM 5637 [10]: 22.5% |
| C=C1CC[C@@H]2[C@](C)(CO)[C@H](O)CC[C@@]2(C)[C@@H]1/C=C/C1=CCOC1=O | inactive | inactive | inactive | inactive |  |  | inactive |  |  |  | inhibition at 10 µM 5637 [10]: 44.7% |
| C=C1CC[C@@H]2[C@](C)(CO)[C@H](O)CC[C@@]2(C)[C@@H]1/C=C/C1=CC(=C/c2ccc(Cl)cc2)/OC1=O |  |  | inactive |  | 25.3 | 16.4 |  | inactive | inactive | inactive | Activity (SGC-7901 [11]): Active; Activity (SGC-7901 [12]): Active; Activity (SGC-7901 [13]): Active; Activity (SGC-7901 [14]): Active; Activity (SGC-7901 [15]): Active; Activity (SGC-7901 [16]): Active; IC50 (SGC-7901 [17]): 4.6 µM; inhibition at 10 µM (HT-29 [19]): 48.1%; inhibition at 10 µM [21]: 40.7%; inhibition at 10 µM (A549 [23]): 41.4%; inhibition of growth at 10 µM (PC-3 [1]): 11.3%; inhibition at 10 µM (PC-3 [2]): 58.5%; IC50 (SGC-7901 [7]): 4.3 µM |
| C[C@@]12COCO[C@@H]1CC[C@]1(C)[C@@H]2CC[C@@]2(CO2)[C@H]1C/C=C1/C(=O)OC[C@H]1O | inactive | inactive | inactive |  | 32.9 | 18.4 | inactive |  |  |  |  |
| C=C1CC[C@@H]2[C@](C)(COC(=O)CCC(=O)O)[C@H](OC(=O)CCC(=O)O)CC[C@@]2(C)[C@@H]1/C=C/C1=CCOC1=O | inactive | inactive | inactive | inactive |  |  | inactive |  |  |  | inhibition 5637 [10]: inactive |
| C=C1CC[C@@H]2[C@](C)(CO)[C@H](O)CC[C@@]2(C)[C@@H]1/C=C/C1=CC(=C/c2ccccc2)/OC1=O | inactive |  | inactive | inactive |  |  |  | inactive | inactive | inactive | IC50 (HT-29 [24]): 48.4 µM; inhibition at 5 µM [25]: 45.3%; inhibition at 5 µM (A549 [26]): 45.1%; IC50 (PC-3 [27]): 13.2 µM; inhibition at 10 µM (SGC-7901 [5]): 30.3%; inhibition at 10 µM 5637 [10]: 44.8% |
| C=C1CC[C@@H]2[C@](C)(COC(=O)CCC(=O)O)[C@H](OC(=O)CCC(=O)O)CC[C@@]2(C)[C@@H]1/C=C/C1=CC(=C/c2ccc(Cl)cc2)/OC1=O | inactive | inactive | inactive | inactive |  |  | inactive |  |  |  | inhibition 5637 [10]: inactive |
| C=C1CC[C@@H]2[C@](C)(CO)[C@H](O)CC[C@@]2(C)[C@@H]1C/C=C1/C(=O)OC[C@H]1O [ANDROGRAPHOLIDE] | inactive | inactive | inactive |  | 44 | 34.5 |  | inactive | inactive | inactive | Activity (SGC-7901 [28]): Active; Activity (SGC-7901 [29]): inactive; Activity (SGC-7901 [30]): Dose-dependent effect; inhibition (SGC-7901 [31]): Active; inhibition at 10 µM (SGC-7901 [32]): 17.7%; inhibition (HT-29 [19]): inactive; inhibition (ECa-109 [33]): inactive; inhibition at 5 µM (A549 [26]): 28.6%; inhibition at 10 µM (SGC-7901 [5]): 20.8%; inhibition 5637 [34]: inactive |
| C=C1CC[C@@H]2[C@](C)(CO)[C@H](O)CC[C@@]2(C)[C@@H]1/C=C/C1=CC(=C/c2ccc(OC)cc2)/OC1=O | inactive |  | inactive |  | 33.7 | 17.9 |  | inactive | inactive | inactive | inhibition at 10 µM (HT-29 [19]): 38.7%; inhibition at 10 µM [21]: 41.3%; inhibition at 10 µM (A549 [23]): 35.1%; inhibition at 10 µM (PC-3 [2]): 34%; inhibition at 10 µM (SGC-7901 [5]): 48.5% |
| C=C1CC[C@@H]2[C@]3(C)COCO[C@@H]3CC[C@@]2(C)[C@@H]1C/C=C1/C(=O)OC[C@H]1O | inactive | inactive | inactive |  | 25.3 | 36.3 | inactive |  |  |  |  |
| C=C1CC[C@@H]2[C@](C)(CO)[C@H](O)CC[C@@]2(C)[C@@H]1/C=C/C1=CC(=C/c2ccc(F)cc2)/OC1=O | inactive |  | inactive |  | 32.5 | 19.5 |  | inactive | inactive | inactive | inhibition at 10 µM (HT-29 [19]): 39.5%; inhibition at 10 µM [21]: 34.2%; IC50 (A549 [35]): 7.2 µM; inhibition at 10 µM (PC-3 [2]): 34.3%; IC50 (SGC-7901 [7]): 8 µM |
